Molecular target: T1, ABCG2 (Homo sapiens, UniProt Q9UNQ0)
T1 sequence (Q9UNQ0 1-655): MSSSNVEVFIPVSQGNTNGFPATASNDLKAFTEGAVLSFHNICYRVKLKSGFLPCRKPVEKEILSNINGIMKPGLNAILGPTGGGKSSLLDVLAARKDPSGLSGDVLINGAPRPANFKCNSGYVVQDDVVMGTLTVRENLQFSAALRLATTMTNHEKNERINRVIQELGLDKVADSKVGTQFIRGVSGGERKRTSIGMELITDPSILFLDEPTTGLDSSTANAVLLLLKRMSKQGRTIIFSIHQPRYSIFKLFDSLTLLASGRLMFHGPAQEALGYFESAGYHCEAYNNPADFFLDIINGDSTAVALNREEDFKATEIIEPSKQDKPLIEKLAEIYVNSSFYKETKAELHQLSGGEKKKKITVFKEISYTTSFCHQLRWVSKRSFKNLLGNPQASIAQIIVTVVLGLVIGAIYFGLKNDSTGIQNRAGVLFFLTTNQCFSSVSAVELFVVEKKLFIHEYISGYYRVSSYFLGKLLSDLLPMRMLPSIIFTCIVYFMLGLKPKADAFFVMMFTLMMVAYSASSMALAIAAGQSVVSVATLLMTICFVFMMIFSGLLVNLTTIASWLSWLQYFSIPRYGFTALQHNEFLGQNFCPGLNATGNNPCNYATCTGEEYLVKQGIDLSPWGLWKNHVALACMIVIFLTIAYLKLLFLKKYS
Assay: inhibition of [3H]methotrexate transport in Sf9 membrane vesicles
Format: biochemical

With `Nc1nc(Cl)nc2c1ncn2[C@@H]1O[C@H](CO)[C@@H](O)[C@@H]1F` [clofarabine] the IC50 was ~14 µM.

Source: article PMC3531552 (Cancer research, 2011)
